Eight compounds from US20180065917A1, “IMMUNE CHECKPOINT INHIBITORS, COMPOSITIONS AND METHODS THEREOF” (Polaris Pharmaceuticals, Inc., priority 2016, published 2018) can be followed below.

By IC50 is commonly meant the concentration that gives 50% inhibition. In general, melting point refers to the temperature of the solid-liquid transition.

Structures can show the parent of a compound that is named as a salt.

T1 sequence (Q9NZQ7 19-239 limits assumed, one chain of several): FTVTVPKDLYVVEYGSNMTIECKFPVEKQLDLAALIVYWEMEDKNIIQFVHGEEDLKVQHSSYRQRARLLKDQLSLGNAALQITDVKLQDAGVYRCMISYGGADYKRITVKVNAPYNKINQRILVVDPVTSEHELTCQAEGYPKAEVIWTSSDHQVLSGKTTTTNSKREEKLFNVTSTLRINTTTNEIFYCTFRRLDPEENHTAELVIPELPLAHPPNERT

One data set concerns the target T1, PD-L1/PD-1 complex formation (Homo sapiens, UniProt Q9NZQ7).
T1 construct: purchased BPS Bioscience
Briefly: PD-L1/PD-1 Interaction Assay (ELISA platform). It is filed as binding. Particulars: human PD-1-Fc coated plates, PD-L1-Fc-biotin 0.1 μg/ml, compounds pre-incubated 2 hours. As for the experimental part: The ability of compounds to block PD-L1/PD-1 complex formation was evaluated using biochemical interaction assay based on the ELISA platform.
EIA/RIA high binding 96-well plates (Costar) were coated with human PD-1-Fc protein diluted in PBS to 0.5 μg/ml overnight at 4° C. The PD-1-Fc coated plates were washed in PBST and blocked in blocking buffer (2% BSA in PBST). Serially diluted compounds were pre-incubated with PD-L1-Fc-biotin (0.1 μg/ml final) for 2 hours on a shaker at room temperature. The PD-1-Fc coated plates were washed with PBST and solutions containing PD-L1 and compounds were added to the plates. The PD-1-Fc coated plates were incubated with PD-L1 and compound solution for 2 hours on a shaker at room temperature. After the incubation unbound PD-L1 was washed away with PBST and plates were incubated with the blocking buffer for 10 minutes. The bound PD-L1-Fc-biotin was detected with streptavidin-HRP and TMB substrate. The plates were read at OD450 nm in a plate reader (i3 from Molecular Devices) and percentages of inhibition of PD-L1/PD-1 complex formation were calculated.
PD-1-Fc protein was made at Polaris and PD-L1-Fc was purchased from BPS Bioscience.
For orientation: In an ELISA, binding on a coated surface is turned into a signal by an enzyme label.
`Cc1c(COc2ccc(CN(CC(=O)O)CC(=O)O)cc2Br)cccc1-c1cccc(COc2ccc(CN(CC(=O)O)CC(=O)O)cc2Br)c1C` [Example 30, 2,2′,2″,2′″-((((((2,2′-Dimethyl-[1,1′-biphenyl]-3,3′-diyl)bis(methylene))bis(oxy))bis(3-bromo-4,1-phenylene))bis(methylene))bis(azanetriyl))tetraacetic acid di-trifluoroacetic acid salt] returned an IC50 of 110 to 1000 nM.
The compound `Cc1c(COc2ccc(CN3CCCC[C@H]3C(=O)NCCO)cc2Br)cccc1-c1cccc(COc2ccc(CN3CCCC[C@H]3C(=O)NCCO)cc2Br)c1C` [Example 24, (2S,2′S)-1,1′-(((((2,2′-Dimethyl-[1,1′-biphenyl]-3,3′-diyl)bis(methylene))bis(oxy))bis(3-bromo-4,1-phenylene))bis(methylene))bis(N-(2-hydroxyethyl)piperidine-2-carboxamide)] came in with an IC50 of 110 to 1000 nM.
Same read-out and setting: with `Cc1c(COc2ccc(CNC(C)(CO)CO)cc2Br)cccc1-c1cccc(COc2ccc(CNC(C)(CO)CO)cc2Br)c1C` [Example 33, 2,2′-((((((2,2′-Dimethyl-[1,1′-biphenyl]-3,3′-diyl)bis(methylene))bis(oxy))bis(3-bromo-4,1-phenylene))bis(methylene))bis(azanediyl))bis(2-methylpropane-1,3-diol) di-trifluoroacetic acid salt] the figure was 0.1 to 10 nM; with `Cc1c(COc2ccc(CN(CCO)CCO)cc2Br)cccc1-c1cccc(COc2ccc(CN(CCO)CCO)cc2Br)c1C` [Example 31, 2,2′,2″,2′″-((((((2,2′-Dimethyl-[1,1′-biphenyl]-3,3′-diyl)bis(methylene))bis(oxy))bis(3-bromo-4,1-phenylene))bis(methylene))bis(azanetriyl))tetrakis(ethan-1-ol) di-trifluoroacetic acid salt], 11 to 100 nM; with `Cc1c(COc2ccc(CNC(CO)CO)cc2Br)cccc1-c1cccc(COc2ccc(CNC(CO)CO)cc2Br)c1C` [Example 32, 2,2′-((((((2,2′-Dimethyl-[1,1′-biphenyl]-3,3′-diyl)bis(methylene))bis(oxy))bis(3-bromo-4,1-phenylene))bis(methylene))bis(azanediyl))bis(propane-1,3-diol) di-trifluoroacetic acid salt], 0.1 to 10 nM.

Tested on in another data set: not given
Test: not given
Settings: not given
Take `Cc1c(COc2ccc(CN[C@H](CO)C(=O)O)cc2Br)cccc1-c1cccc(COc2ccc(CN[C@H](CO)C(=O)O)cc2Br)c1C` (as salt: trifluoroacetic acid salt) [Example 17, (2R,2′R)-2,2′-((((((2,2′-Dimethyl-[1,1′-biphenyl]-3,3′-diyl)bis(methylene))bis(oxy))bis(3-bromo-4,1-phenylene))bis(methylene))bis(azanediyl))bis(3-hydroxypropanoic acid) di-trifluoroacetic acid salt]: the melting point lay in the range of 156 to 160 °C.
Still for that read-out and setting: with `CCc1cc(CN2CCCC[C@H]2C(=O)O)ccc1OCc1cccc(-c2cccc(COc3ccc(CN4CCCC[C@H]4C(=O)O)cc3CC)c2C)c1C` (as salt: trifluoroacetic acid salt) [Example 27, (2S,2′S)-1,1′-(((((2,2′-Dimethyl-[1,1′-biphenyl]-3,3′-diyl)bis(methylene))bis(oxy))bis(3-ethyl-4,1-phenylene))bis(methylene))bis(piperidine-2-carboxylic acid) di-trifluoroacetic acid salt] the figure was 131 to 135 °C; with `Cc1c(COc2ccc(CNC(C)(CO)CO)cc2Br)cccc1-c1cccc(COc2ccc(CNC(C)(CO)CO)cc2Br)c1C` (as salt: trifluoroacetic acid salt) [Example 33, 2,2′-((((((2,2′-Dimethyl-[1,1′-biphenyl]-3,3′-diyl)bis(methylene))bis(oxy))bis(3-bromo-4,1-phenylene))bis(methylene))bis(azanediyl))bis(2-methylpropane-1,3-diol) di-trifluoroacetic acid salt], 134 to 138 °C.
